From patent publication US11965100B2, “Aggregation-induced emission luminogens useful for cancer cell discrimination and monitoring” (The Hong Kong University of Science and Technology, priority 2020, dated 2024)

Assays:
[1] = system: HeLa cells; assay: Two-photon imaging in live cells; assay type: cell-based; conditions: 2 μM, 30 min, λex 800 nm
Description: FIG. 22 (A) Two-photon microscopy images of live HeLa cells stained with 2 μM IVP-02 for 30 min. λex=800 nm, λem=495-540 nm. Scale bar=20 μm. (B) Viability of A549 cells after incubation with IVP-02, 04, 06, 22, 42, and 62 at different concentrations for 24 h.
Given the high two-photon absorption cross section values of IVP-02 excited by 800 nm, we performed in vitro two-photon imaging of IVP-02 in live HeLa cells.

[2] = system: A549 cells; assay: Mitochondrion-nucleolus migration on CCCP treatment, A549 cells; assay type: cell-based, human
Description: (§1) FIG. 15 Live A549 cells (A) and live A549 co-cultured with COS 7 cells, live HeLa co-cultured with COS7 cells (B) were pre-stained with 2 μM IVP-02 for 30 min, and treated with 20 μM CCCP for 5 min. Then CCCP was removed away and fresh culture medium was added for another 5 min. λex=488 nm, λem=500-650 nm. Scale bar=20 μm.
FIG. 18 Live A549 cells were pre-stained with 2 μM IVP-04, 22, 42, 06, 62 for 30 min, and treated with 20 μM CCCP for 5 min. Then CCCP was removed away and fresh culture medium was added for another 5 min, respectively. λex=488 nm, λem=500-650 nm. Scale bar=20 μm.
(§2) Monitoring cell viability is a highly valuable task for the fundamental researches in biology, pathology, and medicine. Then we investigated whether IVP-02 could monitor cell viability. Δψm is a very important indicator to characterize cell viability. With the loss of cell viability, Δψm would decrease, while with the recovery of cell viability, Δψm would also recover to the normal level. […] Carbonyl cyanide m-chlorophenyl hydrazone (CCCP) is a type of protonophore and can cause rapid acidification of mitochondria by collapsing Δψm. Cancer cells A549 were pre-stained with IVP-02 for 30 min. In FIG. 15A, in the beginning, IVP-02 stained mitochondria clearly. […] Hydrogen peroxide (H2O2) can inhibit the oxidation respiratory chain that would cause the loss of cell viability. Then live A549 and HeLa cells were pre-stained with IVP-02, and treated with 10 mM H2O2.
(§3) In addition to IVP-02, we further investigated whether other IVP molecules could monitor the viability of cancer cells through mitochondrion-nucleolus migration was investigated. A549 cells were pre-stained with IVP-04, 22, 42, 06, and 62, respectively, and then CCCP was added.

[3] = system: HeLa cells; assay: Mitochondrion-nucleolus migration on CCCP treatment, HeLa cells; assay type: cell-based; conditions: pre-stained 2 μM 30 min, 20 μM CCCP 5 min
Description: FIG. 16 Live HeLa cells were pre-stained with 2 μM IVP-02 for 30 min, and treated with 20 μM CCCP for 5 min. Then CCCP was removed away and fresh culture medium was added for another 5 min. λex=488 nm, λem=500-650 nm. Scale bar=20 μm.
FIG. 19 Live HeLa cells were pre-stained with 2 μM IVP-04, 22, 42, 06, 62 for 30 min, and treated with 20 μM CCCP for 5 min. Then CCCP was removed away and fresh culture medium was added for another 5 min, respectively. λex=488 nm, λem=500-650 nm. Scale bar=20 μm.
as §2, §3

[4] = system: A549 and HLF cells; assay: CLSM imaging of A549 and HLF cells seeded on different cover glasses in the same dish; assay type: cell-based, human; conditions: 2 μM, 30 min
Description: FIG. 5 CLSM images of live cancer cells (A549 and HeLa) co-cultured with normal cells (COS7 and HLF) (A), and the images of A549 and HLF cells seeded on different cover glasses (Scale bar=20 μm) (B) stained with 2 μM IVP-02 for 30 min (Scale bar=50 μm), respectively. λex=488 nm, λem=500-650 nm.
FIG. 10 CLSM images of live cancer cells (A549) co-cultured with normal cells (COS7) (A), and the images of A549 and HLF cells seeded on different cover glasses Scale bar=20 μm (B) stained with 2 μM IVP-02, 04, 06, 22, 42, and 62 for 30 min Scale bar=50 μm, respectively. (The first column in B is the same as FIG. 3B) λex=488 nm, λem=500-650 nm.
The bioimaging properties of IVP-02 in live cells were investigated by confocal laser scanning microscopy (CLSM). Cancer cells (A549 and HeLa) and normal cells (COS7 and HLF) were stained with IVP-02, respectively. […] So IVP-02 holds the high potential to differentiate cancer and normal cells. To verify this speculation, cancer and normal cells were co-cultured and stained with IVP-02. […] To precisely confirm the selectivity of IVP-02 to cancer cells, cancer cells A549 and normal cells HLF (A549 and HLF are both human lung cells) were seeded on different cover glasses, respectively. Then the two cover glasses were put in the same dish and stained with IVP-02 at the same time.
Cancer cells A549 co-cultured with normal cells COS7 were stained with these molecules, respectively. […] Then HeLa cells co-cultured with COS7 cells (FIG. 11), and A549 cells co-cultured with HLF cells (FIG. 12) were also stained with these molecules, the results were similar with that in A549 cells co-cultured with COS7 cells. In addition to co-culturing, A549 cells and HLF cells were also seeded on different cover glasses and stained with these molecules. […] Based on the imaging results above, it can be concluded that the selectivity of these IVP molecules to cancer cells is also based on the length of alkyl chain at pyridinium salt side. Lengthening the alkyl chain at the pyridinium salt side will eliminate the selectivity to cancer cells.

[5] = system: A549 co-cultured with COS7 cells, HeLa co-cultured with COS7 cells; assay: CCCP treatment of cancer cells co-cultured with normal cells; assay type: cell-based; conditions: A549 or HeLa with COS7, 2 μM, 20 μM CCCP added then removed
Description: as §1
To test whether IVP-02 could selectively stain cancer cells and monitor their viability, cancer cells and normal cells were co-cultured and stained with IVP-02. […] After CCCP was removed, the fluorescence in nucleolus disappeared, while the fluorescence in mitochondria recovered gradually. […] The same experiments were also carried out in HeLa cells co-cultured with COS7 cells shown in FIG. 15B and similar phenomena were observed.

[6] = Quantum yield in the solid state; assay type: physicochemical
Source text: IVPI-2 is able to stain mitochondria in healthy live cancer cells. However, when Δψm decreases, IVPI-2 migrates into nucleolus. Since IVPI-2 is target-changeable according to the change of mitochondrial physiology, the chemical structure of IVPI-2 was modified in order to enhance the mitochondria to nucleolus migration. Iodide ion is a well-known effective fluorescent quencher due to its heavy-atom effect. The quantum yield of IVP-02 in the solid state is 4.3%, which is about 3 times than that of IVPI-02 (1.3%). An Exemplary synthetic route to certain embodiments of the compounds described herein is depicted in Scheme 1.

- quantum yield [6]: 4.3%
- quantum yield relative to IVPI-02 [6]: about 3 times
Compound: CC[n+]1ccc(/C=C/c2c[nH]c3ccccc23)cc1 [IVP-02]
- two-photon fluorescence imaging [1]: bright two-photon fluorescence
- migration back to mitochondria after removal of CCCP ([2]; A549, CCCP removed, fresh medium 5 min): migrated back to mitochondria
- migration from mitochondria to nucleolus after addition of CCCP ([2]; A549, pre-stained 2 μM 30 min, 20 μM CCCP 5 min): released from mitochondria and migrated to nucleolus
- nucleolus staining after addition of CCCP [3]: could stain nucleolus
- staining of A549 and HLF cells on different cover glasses [4]: only A549 cells on the upper cover glass were illuminated
- selective staining and viability monitoring in co-cultured cells [5]: could selectively stain cancer cells and monitor their viability through mitochondrion-nucleolus migration
